This is an account of results in patent US10064858B2, “Methods and compositions for treating bacterial infections with iron chelators” (THE UNITED STATES OF AMERICA, AS REPRESENTED BY THE …, priority 2011, dated 2018).

The test system of one series is EC 35218, EC 43888. Description: Checkerboard assay, chelator with antibiotic (FIC). The class given is cell-based, E. coli. From the text:
Drug interactions were initially evaluated with the “checkerboard” microdilution design, which provided a matrix of all drug combinations assayed in terms of fractions of the previously determined MIC. The checkerboard microdilution design is described in R. J. Tallarida, “Drug Synergism: Its Detection and Applications,” Journal of Pharmacology and Experimental Therapeutics, 865-872 (2001); and in R. L. White, et al., (1996), supra. FIGS. 39A and 39B show the wellplates having different concentrations of iron chelator and antibiotic, as labeled along the x-axis and y-axis.
The checkerboard assay was used to asses other combinations of iron chelators and antibiotics. The fractional inhibitory concentration index (FIC), which was calculated as follows: FIC=(MIC A in combination/MIC A)+(MIC B in combination/MIC B). Interaction was defined as synergistic if the FIC was <1.0, preferably <0.5, no interaction if the FIC was >1.0 and <4.0, and antagonistic if the FIC was >4.0. […]
The assay was run against the multi-drug resistant bacterial species AB 19606, AB 17978, EC 35218, and EC 43888.

Series [1] concerns Acinetobacter baumannii strain 5711 (AB5711). Description: Growth (OD600) of AB5711 in low iron media with chelators, with or without FeCl3. As to conditions: for bacterial growth (OD600 growth curves): AB5711, low iron media, 100 μM or 200 μM chelator added after 4 hr, 24 hr. Format: cell-based. The method, then: Acinetobacter baumannii strain 5711 (AB5711) was grown overnight in LB media and sub-cultured into low iron media. The tested iron chelators were deferoxamine (DFO), deferiprone (DFP), 2,2-dipyridyl, and VK28. The iron chelators were added after 4 hr of growth.
Bacterial growth was estimated by absorption at OD600 every 4 hr for 24 hr. Optical density (OD) at 600 nm (OD600) as measured by a spectrophotometer is a widely used technique known by one skilled in the art to estimate the total number of bacterial cells present in a broth culture (CFU/ml). The exact amount of OD produced by a culture will depend on the concentration of cells present, the species and strain of microbe present, the growth conditions used, and the wavelength of the light being transmitted. Thus, the relationship between OD and cell concentrations will depend on the specific strain and growth conditions studied. For example, the OD600 of 1 for E. coli is about 1×10^9 CFU/ml.
This example provides further evidence that the removal of iron is responsible for bacterial growth inhibition. A. baumannii isolate 5711 was grown in low iron M9 media supplemented with 0 μM, 10 μM, or 100 μM FeCl3 with and without the addition of 200 μM VK28 following 4 hr of growth. Growth was estimated by absorbance at 600 nm every 4 hr for 24 hr.
This example provides further evidence that the removal of iron is responsible for bacterial growth inhibition. A. baumannii isolate 5711 was grown in low iron M9 media supplemented with 0 μM, 10 μM, 100 μM, or 1000 μM FeCl3 with and without the addition of 50 μg/ml of VK28 following 4 hr of growth. Growth was estimated by absorbance at 600 nm after 20 hours.

Another series relates to S. aureus. As to the kind of experiment: MIC in RPMI1640 media (Table 2). As to conditions: Staphylococcus aureus. Format: cell-based. The procedure:
Individual MICs were determined following the microdilution method recommended by CLSI in cationic-adjusted Mueller-Hinton Broth (CAMHB), or M9 media. […] Tests were performed in triplicate. MIC of iron chelators were determined for noscomial ESKAPE pathogens.
This media is closer to the iron levels in the human body. MICs are in ug/mL.

The next series concerns Bioluminescent AB0057. As to the kind of experiment: Bioluminescent AB0057 challenged with iron chelators. Format: cell-based, Acinetobacter baumannii. As to conditions: 100 μm; 4 hours; low iron media. The source says:
This example studies bioluminescent A. baumannii challenged with iron chelators. AB0057 is a strain of Acinetobacter baumannii available from Robert Bonomo, Case Western Reserve University, Cleveland, Ohio.
As a precursor to conducting this in vitro assay, AB0057 was transformed with a bioluminescent plasmid. The p16Slux plasmid is illustrated in FIG. 38, and further details regarding its development and use are set forth in Christian U. Riedel et al., “Construction of p16Slux, a Novel Vector for Improved Bioluminescent Labeling of Gram-Negative Bacteria,” Appl. Environ. Microbiol. 2007 November; 73(21): 7092-7095.
Bioluminescent AB0057 were grown overnight in LB media and sub-cultured into low iron media in a 96-well plate containing varying concentrations of iron chelators for 4 hours. Bacterial growth was measured by bioluminescence (relative light units). The iron chelators VK28 and DFO were tested along with chelators DIP, ETTA, and EDTA as controls. The chelators were tested a concentrations of 0 μM, […], 3.13 μM, 6.25 μM, 12.5 μM, 25 μM, 50 μM, and 100 μM.

A further series has as its system Acinetobacter baumannii. Description: Growth (OD600) with VK28 in M9 media with magnesium / calcium. Format: cell-based. As to conditions: 24 hours. The procedure: Acinetobacter baumannii was grown similar to as described in Example 21 in M9 media containing 2 mM MgSO4 for 24 hours in the presence of 0 μg/ml, 50 μg/ml, 100 μg/ml, or 200 μg/ml VK28. The OD600 was measured at 0, 4, and 24 hour and the results are shown in the time-kill curves of FIG. 19.
In this example, strains of MR Staphylococcus aureus (MRSA), Acinetobacter baumannii (Acinetobacter), Escherichia coli (E. coli), and Pseudomonas aeruginosa (Pseudomonas) were grown in M9 media in the presence of 2 mM MgSO4 and 1.35 mM CaCl2 for 24 hours in the presence or absence of 0 μg/ml, 50 μg/ml, 100 μg/ml, or 200 μg/ml of VK28. The OD600 was measured at 24 hour and the results are shown in the bar graph of FIG. 21.

The conditions of series [2]: mouse; systemically/intravenously; cited from earlier work.
The conditions of series [3]: rat; systemically/intravenously; cited from earlier work.
[4] abbreviates: EC 35218, in combination with Cefotaxine.
[5] abbreviates: EC 35218, in combination with Colisitin.
The mark [6] stands for this setting: EC 35218, in combination with Doxycycline.
The mark [7] stands for this setting: EC 35218, in combination with Rifampin.
Setting [8] is: EC 43888, in combination with Cefotaxine.
Setting [9] is: EC 43888, in combination with Colisitin.
The mark [10] stands for this setting: EC 43888, in combination with Doxycycline.
Where [11] appears, read: EC 43888, in combination with Rifampin.

As a reminder, the MIC is the lowest concentration found to suppress growth.

Like-named read-outs stand apart in the source and are kept apart here.

`CNC(=O)c1c(O)c(=O)cc(C)n1C1CC1` [Apo6619, 1-cyclopropyl-3-hydroxy-6-methyl-4-oxo-1,4-dihydro-pyridine-2-carboxylic acid methylamide]: the FIC came to 1.25 in the series on EC 35218, EC 43888 (setting [4]); 1.25 with EC 35218, EC 43888 (setting [5]); 1.25 in the series on EC 35218, EC 43888 (setting [6]); 1.75 in the series on EC 35218, EC 43888 (setting [7]); 1.25 with EC 35218, EC 43888 (setting [8]); 1.25 in the series on EC 35218, EC 43888 (setting [9]). The FIC with EC 35218, EC 43888 (setting [10]) is reported as 1.25; in the series with EC 35218, EC 43888 (setting [11]) it was 0.75.
Turning to `Cc1c(O)c(=O)ccn1C` [ApoL1, 3-hydroxy-1,2-dimethyl-4(1H)-pyridone], the FIC in the series with EC 35218, EC 43888 (setting [4]) was 1.25; with EC 35218, EC 43888 (setting [5]), 1.25; in the series on EC 35218, EC 43888 (setting [6]), 1.25; with EC 35218, EC 43888 (setting [7]) it was 0.75; in the series on EC 35218, EC 43888 (setting [8]) it was 1.25; with EC 35218, EC 43888 (setting [9]), 1.25. Besides, the FIC with EC 35218, EC 43888 (setting [10]) was 1.25; in the series on EC 35218, EC 43888 (setting [11]), 0.75. Also, the “bacterial growth (OD600 growth curves)” value in series [1] is “somewhat reduced bacterial growth”.
As to `OCCN1CCN(Cc2ccc(O)c3ncccc23)CC1` [VK28, 5-(4-(2-hydroxyethyl)piperazin-1-ylmethyl)-8-hydroxyquinoline], the minimum inhibitory concentration (MIC) was found to be 32 µg/mL in the series with S. aureus (ATCC25923, ATCC 25923, read-out: MIC of Iron Chelators) and 16 µg/mL in the series with S. aureus (ATCC 43300 (MRSA), read-out: MIC of Iron Chelators). Further, the “growth with FeCl3 added (absorbance at 600 nm after 20 hours)” value in series [1] (50 μg/ml of VK28 with 10, 100 or 1000 μM FeCl3, low iron M9 media) was “inhibition of growth can be rescued by the addition of FeCl3”. Moreover, in series [1] (200 μM VK28 with 10 μM or 100 μM FeCl3, low iron M9 media), the “growth with free iron added back” value is listed as “bacteria are rescued from the VK28 growth inhibition”. The “bacterial growth (OD600 growth curves)” value in series [1] is “reduced bacterial growth to a significant extent”. Moreover, in the series with Bioluminescent AB0057, the “Bioluminescence (relative light units)” value is on record as “especially surprisingly lower”. In addition, the “inhibition of growth (OD600)” value with Acinetobacter baumannii (M9 with 2 mM MgSO4, 50-200 μg/ml VK28) is “inhibition of growth of Acinetobacter baumannii is not reduced in the presence of magnesium”; in the series with Acinetobacter baumannii (M9 with 2 mM MgSO4 and 1.35 mM CaCl2) it was “inhibition of growth of a number of strains of bacteria is not reduced in the presence of magnesium and calcium”. The dose showing toxicity in series [2] is reported as 30 mg/kg; in series [3], 70 mg/kg.
